We go through 28 molecules from patent US11299488B2, “Five membered-aminoheterocycle and 5,6-or 6,6-membered bicyclic aminoheterocyclic inhibitors of rock for the treatment of heart failure” (BRISTOL-MYERS SQUIBB COMPANY, priority 2017, dated 2022).

The test system of one experiment is rat stroke model. As to conditions: in vivo; cited from earlier work.
In experiment [1] the test system is IL-1 beta-induced coronary stenosis. As to conditions: long term treatment; cited from earlier work.
Another experiment has as its target ROCK2 (Homo sapiens (Human), UniProt O75116). Nature of the experiment: ROCK assay (Caliper LABCHIP peptide phosphorylation, 5 μM ATP). It counts as biochemical. Here is the method:
The effectiveness of compounds of the present invention as ROCK inhibitors can be determined in a 30 μL assay containing 20 mM HEPES, pH 7.5, 20 mM MgCl2, 0.015% Brij-35, 4 mM DTT, 5 μM ATP and 1.5 μM peptide substrate (FITC-AHA-AKRRRLSSLRA-OH) (SEQ ID No. 1). Compounds were dissolved in DMSO so that the final concentration of DMSO was <2%, and the reaction was initiated with Rho kinase variants. After incubation, the reaction was terminated by the addition of EDTA and the phosphorylated and non-phosphorylated peptides separated using a LABCHIP® 3000 Reader (Caliper Life Sciences). […] Compounds were tested in dose-response format, and the inhibition of kinase activity was calculated at each concentration of compound. The inhibition data were fit using a curve-fitting program to determine the IC50; i.e., the concentration of compound required to inhibit 50% of kinase activity. Representative Examples were tested in the ROCK assay described above and found having ROCK inhibitory activity. A range of ROCK inhibitory activity (IC50 values) of ≤50 μM (50000 nM) was observed. Table A below lists the ROCK IC50 values measured for the following examples.

Chain of ROCK2 (O75116 whole entry, species assumed): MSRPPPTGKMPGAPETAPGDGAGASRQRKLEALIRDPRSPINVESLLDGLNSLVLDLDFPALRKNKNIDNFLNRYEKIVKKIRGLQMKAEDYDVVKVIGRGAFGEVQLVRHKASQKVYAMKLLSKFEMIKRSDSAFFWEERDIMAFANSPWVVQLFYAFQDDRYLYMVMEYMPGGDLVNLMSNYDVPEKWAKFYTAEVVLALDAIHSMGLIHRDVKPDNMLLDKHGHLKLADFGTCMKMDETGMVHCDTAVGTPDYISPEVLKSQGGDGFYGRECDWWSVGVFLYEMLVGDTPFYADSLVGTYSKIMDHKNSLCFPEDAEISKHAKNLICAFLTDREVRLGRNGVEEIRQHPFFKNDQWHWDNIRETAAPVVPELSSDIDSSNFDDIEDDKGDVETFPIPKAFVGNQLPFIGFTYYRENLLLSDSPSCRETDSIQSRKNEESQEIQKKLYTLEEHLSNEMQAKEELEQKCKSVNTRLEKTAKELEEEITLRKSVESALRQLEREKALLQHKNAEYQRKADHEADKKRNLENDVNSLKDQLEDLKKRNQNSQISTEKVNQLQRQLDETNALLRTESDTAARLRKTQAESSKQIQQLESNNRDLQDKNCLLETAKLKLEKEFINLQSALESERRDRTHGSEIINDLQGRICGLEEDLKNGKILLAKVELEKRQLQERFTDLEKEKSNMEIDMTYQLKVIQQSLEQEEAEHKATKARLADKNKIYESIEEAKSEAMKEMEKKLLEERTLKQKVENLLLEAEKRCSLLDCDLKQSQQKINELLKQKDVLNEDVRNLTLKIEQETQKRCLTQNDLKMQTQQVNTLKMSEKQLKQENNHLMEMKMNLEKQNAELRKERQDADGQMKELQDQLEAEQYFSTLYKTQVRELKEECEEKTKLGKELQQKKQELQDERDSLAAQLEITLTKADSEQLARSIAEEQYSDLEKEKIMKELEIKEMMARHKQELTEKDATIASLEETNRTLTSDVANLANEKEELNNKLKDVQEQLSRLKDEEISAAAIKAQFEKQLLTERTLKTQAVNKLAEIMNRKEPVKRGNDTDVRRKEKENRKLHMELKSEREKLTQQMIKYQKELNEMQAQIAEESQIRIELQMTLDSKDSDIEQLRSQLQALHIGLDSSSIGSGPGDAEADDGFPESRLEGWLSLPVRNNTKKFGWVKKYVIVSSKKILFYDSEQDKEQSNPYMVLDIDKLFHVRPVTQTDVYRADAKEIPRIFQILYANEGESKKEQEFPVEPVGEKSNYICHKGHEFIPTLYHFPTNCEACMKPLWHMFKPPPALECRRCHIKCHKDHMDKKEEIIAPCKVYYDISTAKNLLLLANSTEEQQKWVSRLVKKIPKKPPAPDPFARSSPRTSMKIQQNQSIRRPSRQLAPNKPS

Regarding `O=S(=O)(c1cccc2cnccc12)N1CCCNCC1` [fasudil], in the experiment on rat stroke model, the “infarct size and neurologic deficit” value is “reduce both the infarct size and neurologic deficit”. Further, in experiment [1], the coronary constrictive remodeling result is listed as “promote a regression of coronary constrictive remodeling” and the coronary stenosis entry was “progressively reduce coronary stenosis”. The term IC50 denotes the concentration at which inhibition is half-maximal. Low values mean inhibition by little substance, high ones a need for much substance. The molecule `[H][C@]1(Oc2ncccc2C(N)=O)C[C@]2(C[C@@H](Nc3nccc(N4CC(F)(F)C4)n3)C2)C1` (stereo partly drawn) [Example 39, 2-(((2S,4s,6S)-6-((4-(3,3-difluoro-azetidin-1-yl)pyrimidin-2-yl)amino)spiro[3.3]heptan-2-yl)oxy) nicotinamide] came in with an IC50 at ROCK2 of 983 nM. Same read-out and setting: in the case of `[H][C@]1(Oc2ncccc2C(N)=O)C[C@]2(C[C@@H](Nc3ccnc(N4CCC(F)(F)C4)n3)C2)C1` (stereo partly drawn) [Example 62, 2-(((2S,4s,6S)-6-((2-(3,3-difluoro-pyrrolidin-1-yl)pyrimidin-4-yl)amino)spiro[3.3]heptan-2-yl)oxy) nicotinamide] it was 398 nM; in that of `NC(=O)c1cccnc1O[C@H]1C[C@@]2(C[C@H](Nc3nc(-c4ccccc4)cs3)C2)C1` (stereo partly drawn) [Example 13, 2-(((2S,4s,6S)-6-((4-phenylthiazol-2-yl)amino)spiro[3.3]heptan-2-yl)oxy)nicotinamide], 96 nM; in that of `NC(=O)c1cccnc1O[C@H]1C[C@@]2(C[C@H](Nc3ncc4ccccc4n3)C2)C1` (stereo partly drawn) [Example 28, 2-(((2S,4s, 6S)-6-(quinazolin-2-ylamino)spiro [3.3]heptan-2-yl)oxy) nicotinamide], 258 nM.

Molecule `Cn1cc(-c2cccc3sc(N[C@H]4C[C@]5(C4)C[C@H](Oc4ncccc4C(N)=O)C5)nc23)cn1` (stereo partly drawn) [Example 15, 2-(((2S,4s,6S)-6-((4-(l-methyl-1H-pyrazol-4-yl)benzo[d]thiazol-2-yl)amino)spiro[3.3]heptan-2-yl)oxy)nicotinamide] yielded an IC50 against ROCK2 of 597 nM.

Consider `NC(=O)c1cccnc1O[C@H]1CC2(C[C@H](Nc3nc4cc(F)c(Br)cc4s3)C2)C1` (stereo partly drawn) [Example 1, 2-(((2S,4s,6S)-6-((6-bromo-5-fluorobenzo[d]thiazol-2-yl)amino)spiro[3.3]heptan-2-yl)oxy)nicotinamide], for which, on ROCK2, the IC50 was 547 nM.

The molecule `[H][C@]1(Oc2ncccc2C(N)=O)C[C@]2(C[C@@H](Nc3nccc(-c4cnn(C)c4)n3)C2)C1` (stereo partly drawn) [Example 54, 2-(((2S,4s,6S)-6-((4-(1-methyl-1H-pyrazol-4-yl)pyrimidin-2-yl)amino)spiro[3.3]heptan-2-yl)oxy) nicotinamide] gave an IC50 on ROCK2 of 874 nM.

With `NC(=O)c1cccnc1O[C@H]1C[C@@]2(C[C@H](Nc3nnc(-c4ccc(OC(F)(F)F)cc4)o3)C2)C1` (stereo partly drawn) [Example 16, 2-(((2S,4s,6S)-6-((5-(4-(trifluoromethoxy)phenyl)-1,3,4-oxadiazol-2-yl)amino)spiro[3.3]heptan-2-yl)oxy)nicotinamide], the IC50 against ROCK2 stood at 96 nM. On ROCK2, `[H][C@]1(Oc2ncccc2C(N)=O)C[C@]2(C[C@@H](Nc3nccc(NCC(C)(C)CO)n3)C2)C1` (stereo partly drawn) [Example 45, 2-(((2S,4s,6S)-6-((4-((3-hydroxy-2,2-dimethyl-propyl)amino)pyrimidin-2-yl)amino)spiro[3.3]heptan-2-yl)oxy) nicotinamide] registered an IC50 of 678 nM. At ROCK2, `NC(=O)c1cccnc1O[C@H]1C[C@@]2(C[C@H](Nc3nc(-c4ccc(F)cc4)cs3)C2)C1` (stereo partly drawn) [Example 12, 2-(((2S,4s,6S)-6-((4-(4-fluorophenyl)thiazol-2-yl)amino)spiro [3.3]heptan-2-yl)oxy)nicotinamide] showed an IC50 of 846 nM. Same read-out and setting: in the case of `NC(=O)c1cccnc1O[C@H]1C[C@@]2(C[C@H](Nc3nnc(-c4ccc(F)c(F)c4F)o3)C2)C1` (stereo partly drawn) [Example 19, 2-(((2S,4s,6S)-6-((5-(2,3,4-trifluorophenyl)-1,3,4-oxadiazol-2-yl)amino)spiro[3.3]heptan-2-yl)oxy)nicotinamide] it was 287 nM; in that of `NC(=O)c1cccnc1O[C@H]1C[C@@]2(C[C@H](Nc3ncnc4cc(Cl)ccc34)C2)C1` (stereo partly drawn) [Example 24, 2-(((2S,4s,6S)-6-((7-chloro-quinazolin-4-yl)amino)spiro[3.3]heptan-2-yl)oxy) nicotinamide], 103 nM; in that of `[H][C@]1(Oc2ncccc2C(N)=O)C[C@]2(C[C@@H](Nc3nccc(N4CCCC(F)C4)n3)C2)C1` (stereo partly drawn) [Example 41, 2-(((2S,4s,6S)-6-((4-(3-fluoro-piperidin-1-yl)pyrimidin-2-yl)amino)spiro [3.3]heptan-2-yl)oxy) nicotinamide], 496 nM. On to `COc1ccc(-c2csc(N[C@H]3C[C@]4(C3)C[C@H](Oc3ncccc3C(N)=O)C4)n2)cc1` (stereo partly drawn) [Example 8, 2-(((2S,4s,6S)-6-((4-(4-methoxyphenyl)thiazol-2-yl)amino)spiro[3.3]heptan-2-yl)oxy)nicotinamide], for which the IC50 on ROCK2 is 115 nM.

Regarding `NC(=O)c1cccnc1O[C@H]1C[C@@]2(C[C@H](Nc3nnc(-c4ccc(F)c(F)c4)o3)C2)C1` (stereo partly drawn) [Example 18, 2-(((2S,4s,6S)-6-((5-(3,4-difluorophenyl)-1,3,4-oxadiazol-2-yl)amino)spiro[3.3]heptan-2-yl)oxy)nicotinainide], at ROCK2, half-maximal inhibition (IC50) required 326 nM.

The molecule `[H][C@]1(Oc2ncccc2C(N)=O)C[C@]2(C[C@@H](Nc3ccnc(N4CCC(C(F)(F)F)CC4)n3)C2)C1` (stereo partly drawn) [Example 65, 2-(((2S,4s,6S)-6-((2-(4-(trifluoro-methyl)piperidin-1-yl)pyrimidin-4-yl)amino)spiro[3.3]heptan-2-yl)oxy) nicotinamide] registered an IC50 on ROCK2 of 964 nM. The same measure, in the same setting: in the case of `[H][C@]1(Oc2ncccc2C(N)=O)C[C@]2(C[C@@H](Nc3nccc(NC4CCC(F)(F)CC4)n3)C2)C1` (stereo partly drawn) [Example 44, 2-(((2S,4s,6S)-6-((4-((4,4-difluoro-cyclohexyl)amino)pyrimidin-2-yl)amino)spiro[3.3]heptan-2-yl)oxy) nicotinamide] it was 489 nM; in that of `[H][C@]1(Oc2ncccc2C(N)=O)C[C@]2(C[C@@H](Nc3nccc(N4CCC(F)(F)C4)n3)C2)C1` (stereo partly drawn) [Example 38, 2-(((2S,4s,6S)-6-((4-(3,3-difluoro-pyrrolidin-1-yl)pyrimidin-2-yl)amino)spiro[3.3]heptan-2-yl)oxy) nicotinamide], 388 nM; in that of `NC(=O)c1cccnc1O[C@H]1C[C@@]2(C[C@H](Nc3nc4c(F)cccc4o3)C2)C1` (stereo partly drawn) [Example 6, 2-(((2S,4s,6S)-6-((4-fluorobenzo[d]oxazol-2-yl)amino)spiro[3.3]heptan-2-yl)oxy)nicotinamide], 110 nM.

`NC(=O)c1cccnc1O[C@H]1C[C@@]2(C[C@H](Nc3cnc4ccc(F)cc4n3)C2)C1` (stereo partly drawn) [Example 22, 2-(((2S,4s,6S)-6-((7-fluoro-quinoxalin-2-yl)amino)spiro[3.3]heptan-2-yl)oxy) nicotinamide] registered an IC50 against ROCK2 of 148 nM. Same read-out and setting: in the case of `[H][C@]1(Oc2ncccc2C(N)=O)C[C@]2(C[C@@H](Nc3nccc(-c4ccc(F)cc4)n3)C2)C1` (stereo partly drawn) [Example 47, 2-(((2S,4s,6S)-6-((4-(4-fluorophenyl)pyrimidin-2-yl)amino)spiro[3.3]heptan-2-yl)oxy) nicotinamide] it was 211 nM. On the same count and under the same terms, in the case of `NC(=O)c1cccnc1O[C@H]1C[C@@]2(C[C@H](Nc3cnc4cc(F)ccc4n3)C2)C1` (stereo partly drawn) [Example 21, 2-(((2S,4s,6S)-6-((6-fluoroquinoxalin-2-yl)amino)spiro[3.3]heptan-2-yl)oxy)nicotinamide] it was 73 nM; in that of `NC(=O)c1cccnc1O[C@H]1C[C@@]2(C[C@H](Nc3nnc(-c4ccc(F)cc4)o3)C2)C1` (stereo partly drawn) [Example 17, 2-(((2S,4s,6S)-6-((5-(4-fluorophenyl)-1,3,4-oxadiazol-2-yl)amino)spiro[3.3]heptan-2-yl)oxy)nicotinamide], 70 nM. On the same count and under the same terms, in the case of `NC(=O)c1cccnc1O[C@H]1C[C@@]2(C[C@H](Nc3ncc4ccc(F)cc4n3)C2)C1` (stereo partly drawn) [Example 30, 2-(((2S,4s,6S)-6-((7-fluoro-quinazolin-2-yl)amino)spiro[3.3]heptan-2-yl)oxy) nicotinamide] it was 235 nM; in that of `[H][C@]1(Oc2ncccc2C(N)=O)C[C@]2(C[C@@H](Nc3nccc(-c4cccnc4)n3)C2)C1` (stereo partly drawn) [Example 51, 2-(((2S,4s,6S)-6-((4-(pyridin-3-yl)pyrimidin-2-yl)amino)spiro[3.3]heptan-2-yl)oxy) nicotinamide], 414 nM; in that of `N#Cc1ccc(-c2cnc(N[C@H]3CC4(C3)C[C@H](Oc3ncccc3C(N)=O)C4)nc2)cc1` (stereo partly drawn) [Example 34, 2-(((2S,4s,6S)-6-((5-(4-cyanophenyl)pyrimidin-2-yl)amino)spiro[3.3]heptan-2-yl)oxy)nicotinamide], 105 nM. As to `COc1ccc2c(N[C@H]3C[C@]4(C3)C[C@H](Oc3ncccc3C(N)=O)C4)ncnc2c1` (stereo partly drawn) [Example 25, 2-(((2S,4s,6S)-6-((7-methoxy-quinazolin-4-yl)amino)spiro[3.3]heptan-2-yl)oxy) nicotinamide], the midpoint of inhibition against ROCK2, the IC50, lay at 165 nM.
